Source: the NIST ThermoML archive (doi:10.1021/acs.jced.6b00121)

Experiment: xn = mol fraction of the nth substance listed
Settings: 100 kPa, Liquid; for viscosity: Falling or rolling sphere viscometry; for mass density: Vibrating tube method

CCCCCCCCCCC [undecane] + CCCCCO
Settings | mass density [kg/m3] | viscosity [mPa·s]
283.15 K, x1 = 0.0999 | 808.13 | 4.269
283.15 K, x1 = 0.2 | 796.68 | 3.406
283.15 K, x1 = 0.3026 | 786.76 | 2.731
283.15 K, x1 = 0.4001 | 778.65 | 2.21
283.15 K, x1 = 0.5022 | 771.41 | 1.884
283.15 K, x1 = 0.5976 | 765.49 | 1.694
283.15 K, x1 = 0.6984 | 760.02 | 1.551
283.15 K, x1 = 0.801 | 755.27 | 1.452
283.15 K, x1 = 0.8822 | 751.87 | 1.413
283.15 K, x1 = 1 | 747.78 | 1.371
288.15 K, x1 = 0.0999 | 804.49 | 3.679
288.15 K, x1 = 0.2 | 792.98 | 2.958
288.15 K, x1 = 0.3026 | 783.04 | 2.39
288.15 K, x1 = 0.4001 | 774.92 | 1.945
288.15 K, x1 = 0.5022 | 767.66 | 1.689
288.15 K, x1 = 0.5976 | 761.74 | 1.535
288.15 K, x1 = 0.6984 | 756.3 | 1.419
288.15 K, x1 = 0.801 | 751.55 | 1.335
288.15 K, x1 = 0.8822 | 748.15 | 1.287
288.15 K, x1 = 1 | 744.06 | 1.249
293.15 K, x1 = 0.0999 | 800.81 | 3.187
293.15 K, x1 = 0.2 | 789.27 | 2.58
293.15 K, x1 = 0.3026 | 779.3 | 2.103
293.15 K, x1 = 0.4001 | 771.17 | 1.743
293.15 K, x1 = 0.5022 | 763.91 | 1.529
293.15 K, x1 = 0.5976 | 757.99 | 1.404
293.15 K, x1 = 0.6984 | 752.55 | 1.308
293.15 K, x1 = 0.801 | 747.81 | 1.236
293.15 K, x1 = 0.8822 | 744.41 | 1.176
293.15 K, x1 = 1 | 740.35 | 1.145
298.15 K, x1 = 0.0999 | 797.12 | 2.777
298.15 K, x1 = 0.2 | 785.54 | 2.26
298.15 K, x1 = 0.3026 | 775.54 | 1.862
298.15 K, x1 = 0.4001 | 767.4 | 1.571
298.15 K, x1 = 0.5022 | 760.13 | 1.395
298.15 K, x1 = 0.5976 | 754.22 | 1.295
298.15 K, x1 = 0.6984 | 748.78 | 1.214
298.15 K, x1 = 0.801 | 744.05 | 1.153
298.15 K, x1 = 0.8822 | 740.67 | 1.08
298.15 K, x1 = 1 | 736.64 | 1.062
303.15 K, x1 = 0.0999 | 793.4 | 2.428
303.15 K, x1 = 0.2 | 781.78 | 1.995
303.15 K, x1 = 0.3026 | 771.75 | 1.656
303.15 K, x1 = 0.4001 | 763.6 | 1.428
303.15 K, x1 = 0.5022 | 756.32 | 1.283
303.15 K, x1 = 0.5976 | 750.42 | 1.202
303.15 K, x1 = 0.6984 | 745 | 1.095
303.15 K, x1 = 0.801 | 740.28 | 1.026
303.15 K, x1 = 0.8822 | 736.92 | 0.999
303.15 K, x1 = 1 | 732.93 | 0.982
308.15 K, x1 = 0.0999 | 789.65 | 2.136
308.15 K, x1 = 0.2 | 777.98 | 1.768
308.15 K, x1 = 0.3026 | 767.93 | 1.481
308.15 K, x1 = 0.4001 | 759.77 | 1.29
308.15 K, x1 = 0.5022 | 752.5 | 1.153
308.15 K, x1 = 0.5976 | 746.6 | 1.062
308.15 K, x1 = 0.6984 | 741.2 | 0.998
308.15 K, x1 = 0.801 | 736.49 | 0.951
308.15 K, x1 = 0.8822 | 733.14 | 0.922
308.15 K, x1 = 1 | 729.23 | 0.91
313.15 K, x1 = 0.0999 | 785.86 | 1.887
313.15 K, x1 = 0.2 | 774.15 | 1.572
313.15 K, x1 = 0.3026 | 764.08 | 1.33
313.15 K, x1 = 0.4001 | 755.91 | 1.17
313.15 K, x1 = 0.5022 | 748.64 | 1.058
313.15 K, x1 = 0.5976 | 742.76 | 0.976
313.15 K, x1 = 0.6984 | 737.36 | 0.924
313.15 K, x1 = 0.801 | 732.67 | 0.881
313.15 K, x1 = 0.8822 | 729.34 | 0.859
313.15 K, x1 = 1 | 725.53 | 0.847
318.15 K, x1 = 0.0999 | 782.03 | 1.675
318.15 K, x1 = 0.2 | 770.28 | 1.409
318.15 K, x1 = 0.3026 | 760.19 | 1.2
318.15 K, x1 = 0.4001 | 752.02 | 1.065
318.15 K, x1 = 0.5022 | 744.75 | 0.972
318.15 K, x1 = 0.5976 | 738.88 | 0.902
318.15 K, x1 = 0.6984 | 733.51 | 0.856
318.15 K, x1 = 0.801 | 728.83 | 0.819
318.15 K, x1 = 0.8822 | 725.53 | 0.801
318.15 K, x1 = 1 | 721.82 | 0.79
323.15 K, x1 = 0.0999 | – | 1.468
323.15 K, x1 = 0.2 | – | 1.266
323.15 K, x1 = 0.3026 | – | 1.087
323.15 K, x1 = 0.4001 | – | 0.974
323.15 K, x1 = 0.5022 | – | 0.896
323.15 K, x1 = 0.5976 | – | 0.836
323.15 K, x1 = 0.6984 | – | 0.796
323.15 K, x1 = 0.801 | – | 0.764
323.15 K, x1 = 0.8822 | – | 0.748
323.15 K, x1 = 1 | – | 0.74
